From PubChem BioAssay (NCI)
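Method: 48-hour compound exposure of cells in 96-well plates, five concentrations, linear interpolation of endpoints. TGI is the concentration that stops growth completely.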

Columns and labels:
Test in all cases: inhibition of tumour cell growth, NCI panel, 48 h
BT-549 breast = test system: BT-549 breast
CCRF-CEM leukemia = test system: CCRF-CEM leukemia
HCC-2998 colon = test system: HCC-2998 colon
HL-60(TB) leukemia = test system: HL-60(TB) leukemia
KM12 colon = test system: KM12 colon
MDA-MB-231 breast = test system: MDA-MB-231 breast
MDA-MB-435 = test system: MDA-MB-435
OVCAR-4 ovarian = test system: OVCAR-4 ovarian
SF-295 CNS = test system: SF-295 CNS
SK-MEL-2 melanoma = test system: SK-MEL-2 melanoma
SK-MEL-28 melanoma = test system: SK-MEL-28 melanoma
SK-MEL-5 melanoma = test system: SK-MEL-5 melanoma
SN12C renal = test system: SN12C renal
SNB-75 CNS = test system: SNB-75 CNS
SR leukemia = test system: SR leukemia
TK-10 renal = test system: TK-10 renal
UACC-257 melanoma = test system: UACC-257 melanoma
UACC-62 melanoma = test system: UACC-62 melanoma
RPMI-8226 leukemia = test system: RPMI-8226 leukemia

SMILES | TGI (BT-549 breast) [µM] | TGI (CCRF-CEM leukemia) [µM] | TGI (HCC-2998 colon) [µM] | TGI (HL-60(TB) leukemia) [µM] | TGI (KM12 colon) [µM] | TGI (MDA-MB-231 breast) [µM] | TGI (MDA-MB-435) [µM] | TGI (OVCAR-4 ovarian) [µM] | TGI (SF-295 CNS) [µM] | TGI (SK-MEL-2 melanoma) [µM] | TGI (SK-MEL-28 melanoma) [µM] | TGI (SK-MEL-5 melanoma) [µM] | TGI (SN12C renal) [µM] | TGI (SNB-75 CNS) [µM] | TGI (SR leukemia) [µM] | TGI (TK-10 renal) [µM] | TGI (UACC-257 melanoma) [µM] | TGI (UACC-62 melanoma) [µM] | TGI (RPMI-8226 leukemia) [µM]
C=CCOc1ccc(/C(N=Nc2ccc(Cl)cc2)=N/NC(=O)c2ccccc2)cc1OC | 70.3 | 86.9 | > 100 | > 100 | > 100 | > 100 | > 100 | > 100 | > 100 | > 100 | > 100 | > 100 | > 100 | > 100 | > 100 | > 100 | > 100 | > 100 | 
C[C@]12CC[C@@H]3c4ccc(OP(=O)(O)O)cc4CC[C@H]3[C@@H]1CCC2=O | > 100 | > 100 | > 100 | > 100 | > 100 | > 100 | > 100 | > 100 | > 100 | > 100 | > 100 | 69.2 | > 100 | > 100 |  | > 100 | > 100 | > 100 | > 100
CC(=O)CCCCC(=O)Nc1ccc(CC(NC(=O)OC(C)(C)C)C(=O)NCC(=O)OCc2ccccc2)cc1 (centres undefined) | 28.6 |  | 38 | 43.6 | 52.1 | 48.3 | 36 | 27.6 | 35.6 |  | 35.4 | 27.8 | 64.4 |  | 56.9 | > 100 |  |  | 39.5
N=c1oc2cc(O)ccc2cc1C(=O)NCc1ccccc1 | 71.1 | 45 |  |  | > 100 | 65.5 | 58.3 | > 100 | > 100 | 34.2 | > 100 | 29.5 | 48.8 | 43.8 | 67 | > 100 | > 100 |  | 39.9
CC(=O)N1C(=O)/C(=C\C(=O)c2ccc([N+](=O)[O-])cc2)c2ccccc21 | 42.1 | 16.9 | 36.7 |  | 55.5 | 84.5 | 61.2 | 34.5 | > 100 | > 100 |  | > 100 | 35 | 49.6 | 20.3 | 26.3 | 40.9 | 38.1 | 
N#CC12C(=O)N3C(=NC(c4ccccc4)NC3c3ccccc3)C1(C#N)C(c1ccccc1)NC1=C2CCC1 (centres undefined) | > 100 | > 100 | > 100 | > 100 | > 100 | > 100 | > 100 | > 100 | > 100 | > 100 | > 100 | > 100 | > 100 | > 100 |  | > 100 | > 100 | > 100 | > 100
COc1ccc2oc(=N)c(C(=O)NCc3ccccc3)cc2c1 | 45.4 | > 100 |  | > 100 | 29.6 | 58.1 | 34.2 | > 100 | 65 | 43.5 | > 100 | > 100 | > 100 | 35 | > 100 | > 100 | > 100 |  | > 100
COCCN(C(C)=O)C1CCC2(SCCS2)c2[nH]c3ccccc3c21 (centres undefined) | > 100 | > 100 | > 100 | > 100 | > 100 | > 100 | > 100 |  | > 100 |  | > 100 | > 100 | > 100 | > 100 | > 100 | > 100 | > 100 |  | > 100
NC(=O)N/N=C1\CCCCc2ccccc21 | > 10 | > 10 | > 10 |  | > 10 | > 10 | > 10 | > 10 |  | > 10 |  |  | > 10 |  | > 10 | > 10 | > 10 |  | > 10
CCCNC(=O)c1cc(NC(=O)c2cc(NC(=O)/C=C/c3ccccc3)c(OC)c(OC)c2)c(OC)c(OC)c1 | 53.4 | > 100 |  | > 100 | 41.8 | 6.27 | 66.5 | 8.05 | 11.2 | 31.2 | 67.7 |  | 0.879 | 7.76 | > 100 | 40.1 | 52.2 | 0.597 | > 100
Nc1ncnc2ccc(Sc3ccc4ncnc(N)c4c3)cc12 | > 100 | > 100 |  | > 100 | > 100 | > 100 | > 100 | > 100 | > 100 | > 100 | > 100 | > 100 | > 100 | > 100 | > 100 | > 100 | > 100 | > 100 | > 100
Cn1c(=S)[nH]c2sc3c(c2c1=O)CCSC3 | > 100 |  | > 100 | 43.3 | > 100 | > 100 | > 100 | > 100 | 97.3 | > 100 |  | > 100 | > 100 | > 100 |  | > 100 | > 100 | > 100 | > 100
O=S(=O)(O)c1ccc(O)c2ncc(Cl)cc12 | > 100 | > 100 | > 100 |  | > 100 | > 100 | > 100 | > 100 | > 100 | > 100 | > 100 | > 100 | > 100 | > 100 | > 100 |  | > 100 | > 100 | > 100
